Experimental data from US7547521B2, “Heteromultimeric ion channel receptor and uses thereof” (McGill University, priority 2000, dated 2009).
Entries after “also recorded” stand apart in the source; their conditions may differ.

Columns and labels:
[1] = target: T1, human ASIC2S.2 (ASIC2A+3) receptors (Homo sapiens, UniProt Q16515+Q9UHC3, A14P/I85V/M358I/P13Q); test: Two-electrode voltage clamp of proton-gated currents in Xenopus oocytes expressing human ASIC2S.2; format: cell-based; conditions: 100 μM FMRFamide; normalised to maximal control current at pH 3
T1 construct: allowing RT-PCR amplified full length nucleic acids to be directionally subcloned into pcDNA3; expressed in transfected cells; host or cells: Xenopus laevis oocytes (nuclear injection of pcDNA3 cDNAs)
T1 sequence (Q16515 1-512): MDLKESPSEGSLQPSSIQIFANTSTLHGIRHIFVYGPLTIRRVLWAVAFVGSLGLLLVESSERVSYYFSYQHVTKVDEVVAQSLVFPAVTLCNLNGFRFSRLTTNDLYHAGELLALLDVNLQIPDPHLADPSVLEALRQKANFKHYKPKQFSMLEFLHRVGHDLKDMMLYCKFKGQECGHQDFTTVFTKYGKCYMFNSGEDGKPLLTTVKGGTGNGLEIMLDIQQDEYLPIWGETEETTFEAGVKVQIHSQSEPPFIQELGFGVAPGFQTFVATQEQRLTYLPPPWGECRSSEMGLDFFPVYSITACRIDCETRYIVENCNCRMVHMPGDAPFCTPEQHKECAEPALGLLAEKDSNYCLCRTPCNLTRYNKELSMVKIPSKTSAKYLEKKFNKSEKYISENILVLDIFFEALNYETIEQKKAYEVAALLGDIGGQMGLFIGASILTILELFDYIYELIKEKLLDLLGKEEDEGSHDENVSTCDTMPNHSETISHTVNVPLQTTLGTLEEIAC
T1 sequence (Q9UHC3 1-531 P13Q/A14P/I85V/M358I): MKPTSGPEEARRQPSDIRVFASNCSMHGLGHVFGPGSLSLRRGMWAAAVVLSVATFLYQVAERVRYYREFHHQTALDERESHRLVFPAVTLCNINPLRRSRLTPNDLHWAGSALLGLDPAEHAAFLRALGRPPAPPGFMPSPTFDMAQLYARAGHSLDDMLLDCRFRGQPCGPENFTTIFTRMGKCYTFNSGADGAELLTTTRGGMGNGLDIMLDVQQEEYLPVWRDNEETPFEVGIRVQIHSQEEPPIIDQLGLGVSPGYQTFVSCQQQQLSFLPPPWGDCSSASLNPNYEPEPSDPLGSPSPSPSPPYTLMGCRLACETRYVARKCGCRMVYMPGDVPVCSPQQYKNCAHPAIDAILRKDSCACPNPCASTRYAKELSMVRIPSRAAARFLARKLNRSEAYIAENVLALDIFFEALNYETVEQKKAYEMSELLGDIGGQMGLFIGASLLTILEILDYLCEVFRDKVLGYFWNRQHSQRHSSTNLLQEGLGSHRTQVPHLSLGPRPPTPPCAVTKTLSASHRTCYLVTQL
Method: According to method 1 described above, nuclei of Xenopus oocytes are injected with ASIC2A and ASIC3 cDNAs separately subcloned into pcDNA3 expression vector (1-5 ng). Control oocytes are injected with H2O. Oocytes are maintained at 18° C. in modified Barth's solution. Proton-activated currents are measured by two-electrode voltage clamp 1-3 days after injection. During voltage clamp (−60 mV/−100 mV)), oocytes are bathed in 116 mM NaCl, 2 mM KCl, 1.8 mM CaCl2, 10 mM acetic acid and 5 mM Hepes (pH 7.4 with NaOH). To determine proton-gating, bath solution is quickly switched to a solution of pH<7.4 for 10 sec, then returned to bath solution for washout. The stimulating solution is prepared by lowering the pH of the original bath solution with hydrochloric acid. The osmolality of the solutions is verified with an osmometer and corrected with mannitol or choline chloride. To document ionic selectivity, NaCl is replaced with LiCl or KCl. Current-voltage relationships are determined by stepping from a holding potential of −60 mV to potentials between −100 and +60 mV for 10 seconds before and during stimulation with low pH solution. FIGS. 1A (human) and 1B (rat) compare proton-activated currents carried by homomultimeric ASIC2A and ASIC3 receptors to the heteromultimeric ASIC-2S.2 receptors (ASIC2a+3). […] Species differences are also noteworthy. […]

[2] = tested on: homomultimeric (ASIC2A or ASIC3) and heteromultimeric (ASIC-2S.2) channels; test: Proton-induced inward currents in oocytes expressing homomultimeric or heteromultimeric ASIC channels; format: cell-based; conditions: human and rat ASIC2A, ASIC3 or ASIC-2S.2-expressing oocytes
Method: According to method 1 described above, nuclei of Xenopus oocytes are injected with ASIC2A and ASIC3 cDNAs separately subcloned into pcDNA3 expression vector (1-5 ng). Control oocytes are injected with H2O. Oocytes are maintained at 18° C. in modified Barth's solution. Proton-activated currents are measured by two-electrode voltage clamp 1-3 days after injection. During voltage clamp (−60 mV/−100 mV)), oocytes are bathed in 116 mM NaCl, 2 mM KCl, 1.8 mM CaCl2, 10 mM acetic acid and 5 mM Hepes (pH 7.4 with NaOH). To determine proton-gating, bath solution is quickly switched to a solution of pH<7.4 for 10 sec, then returned to bath solution for washout. The stimulating solution is prepared by lowering the pH of the original bath solution with hydrochloric acid. The osmolality of the solutions is verified with an osmometer and corrected with mannitol or choline chloride. To document ionic selectivity, NaCl is replaced with LiCl or KCl. Current-voltage relationships are determined by stepping from a holding potential of −60 mV to potentials between −100 and +60 mV for 10 seconds before and during stimulation with low pH solution. FIGS. 1A (human) and 1B (rat) compare proton-activated currents carried by homomultimeric ASIC2A and ASIC3 receptors to the heteromultimeric ASIC-2S.2 receptors (ASIC2a+3). […] Species differences are also noteworthy. Indeed, using human subunits, both the early fast and sustained currents are strongly potentiated, while in the case of rat, the major effect appears to be on the sustained current only.
As described in example 2, voltage clamped oocytes expressing the ASIC-2S.2 channels are used to screen for molecules capable of modulating, activating or inhibiting channel activity.

Compound | Sensitivity and maximal response to acidification (pH dose-response curve) [1] | Effect on proton-induced inward currents [2] | Effect on proton-induced inward currents ([2]; listed as gadolinium)
FMRFamide | increased |  | 
[Gd+3] [gadolinium ions, gadolinium] |  | antagonistic effects | inhibitory effects
N=C(N)NC(=O)c1nc(Cl)c(N)nc1N [amiloride] |  | inhibitory effects; also recorded: antagonistic effects | 
